{"source": "patent US5834484A", "about": "(Board of Supervisors of Louisiana State University and …, priority 1998, dated 1998)", "key": {"DAT": {"system": "DAT", "settings": "in words; cited from earlier work"}, "[1]": {"molecular_target": "T1, dopamine transporter (DAT), cocaine binding site (Rattus norvegicus, UniProt P23977)", "T1 construct": "Rat striatal membranes are prepared from frozen tissue; from tissue; host or cells: rat caudate-putamen (striatal) membranes from frozen tissue", "T1 sequence (P23977 whole entry)": "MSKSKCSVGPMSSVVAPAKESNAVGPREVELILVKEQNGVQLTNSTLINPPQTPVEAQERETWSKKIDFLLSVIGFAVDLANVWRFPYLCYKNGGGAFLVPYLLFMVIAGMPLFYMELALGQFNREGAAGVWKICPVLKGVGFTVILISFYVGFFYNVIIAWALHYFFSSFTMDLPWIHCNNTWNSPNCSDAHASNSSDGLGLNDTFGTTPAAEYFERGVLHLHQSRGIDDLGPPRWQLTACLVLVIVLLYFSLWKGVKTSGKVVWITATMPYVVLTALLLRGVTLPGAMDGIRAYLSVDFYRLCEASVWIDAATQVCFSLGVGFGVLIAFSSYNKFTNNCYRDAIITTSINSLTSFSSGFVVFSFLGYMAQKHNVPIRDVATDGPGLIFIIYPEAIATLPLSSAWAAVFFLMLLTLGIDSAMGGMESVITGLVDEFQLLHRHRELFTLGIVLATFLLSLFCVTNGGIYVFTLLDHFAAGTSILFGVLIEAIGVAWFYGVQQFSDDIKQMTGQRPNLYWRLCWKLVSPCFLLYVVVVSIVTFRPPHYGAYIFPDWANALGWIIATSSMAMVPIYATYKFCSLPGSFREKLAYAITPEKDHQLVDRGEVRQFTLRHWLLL", "test": "Displacement of [^3 H]WIN 35,428 binding (rat striatal / caudate-putamen membranes)", "settings": "for binding affinity compared with cocaine and WIN 35,065-2: high affinity Ki values/components of cocaine and WIN 35,065-2; for Ki: mean ± SEM, three experiments in triplicate, unlabeled ligand, rat caudate-putamen"}, "[2]": {"molecular_target": "T1, dopamine transporter (DAT), cocaine binding site", "settings": "two-site model, taken from Izenwasser et al. 1994, substantially identical conditions, cited from earlier work"}}, "note": "Like-named read-outs stand apart in the source and are kept apart here."}
{"smiles": "COC(=O)[C@@H]1[C@@H](OC(=O)c2ccccc2)C[C@@H]2[C@@H](OC)C[C@H]1N2C", "note": "(relative stereo) [Compound 3, 6β-methoxypseudococaine]", "values": [{"measurement": "binding affinity to DAT (literature)", "setting": "DAT", "value": "relatively low"}]}
{"smiles": "COC(=O)[C@H]1[C@H]2[C@H](OC)C[C@@H](C[C@@H]1OC(=O)c1ccccc1)N2C", "note": "(relative stereo) [Compound 4, 7β-methoxypseudococaine]", "values": [{"measurement": "binding affinity to DAT (literature)", "setting": "DAT", "value": "relatively low"}]}
{"smiles": "COC(=O)C[C@H]1[C@@H](Cc2ccccc2)C[C@@H]2CC[C@H]1N2C", "note": "(relative stereo) [Compound 16a]", "values": [{"measurement": "binding affinity compared with cocaine and WIN 35,065-2", "setting": "[1]; in words", "value": "not statistically different from the binding affinities of cocaine and WIN 35,065-2"}, {"measurement": "Ki", "setting": "[1]", "value": "91 ± 10", "unit": "nM"}]}
{"smiles": "COC(=O)C[C@@H]1[C@@H](Cc2ccccc2)C[C@@H]2CC[C@H]1N2C", "note": "(relative stereo) [Compound 17a]", "values": [{"measurement": "potency relative to the binding affinities of cocaine, WIN 35,065-2 and 16a (unsubstituted 2α-isomer)", "setting": "[1]; in words", "value": "significantly less potent"}, {"measurement": "Ki", "setting": "[1]", "value": "108 ± 14", "unit": "nM"}, {"measurement": "potency (binding affinity) relative to Compound 3, in words", "setting": "[1]; vs prior art cocaine analog 3", "value": "nearly three orders of magnitude more potent"}]}
{"smiles": "COC(=O)C[C@@H]1[C@@H](Cc2ccccc2)C[C@@H]2[C@H](C)C[C@H]1N2C", "note": "(relative stereo) [Compound 17b]", "values": [{"measurement": "Ki", "setting": "[1]", "value": "531 ± 12", "unit": "nM"}]}
{"smiles": "CC[C@@H]1C[C@@H]2[C@H](CC(=O)OC)[C@@H](Cc3ccccc3)C[C@H]1N2C", "note": "(relative stereo) [Compound 17c]", "values": [{"measurement": "potency (binding affinity) relative to Compound 3, fold", "setting": "[1]; vs prior art cocaine analog 3", "value": "about 100 times"}]}
{"smiles": "COC(=O)C[C@H]1[C@@H](Cc2ccccc2)C[C@@H]2[C@@H](C)C[C@H]1N2C", "note": "(relative stereo) [Compound 18b]", "values": [{"measurement": "potency relative to corresponding 6α-methyl analog 16b", "setting": "[1]; 18b vs 16b", "value": "about fourfold more potent"}, {"measurement": "binding affinity relative to unsubstituted analog 16a", "setting": "[1]; in words", "value": "only a slightly lower binding affinity than that of the unsubstituted analog 16a"}, {"measurement": "binding affinity compared with cocaine and WIN 35,065-2", "setting": "[1]; in words", "value": "within a factor of two of the high affinity binding components of cocaine and WIN 35,065-2"}]}
{"smiles": "COC(=O)C[C@@H]1[C@@H](Cc2ccccc2)C[C@@H]2[C@@H](C)C[C@H]1N2C", "note": "(relative stereo) [Compound 19b]", "values": [{"measurement": "potency relative to corresponding 6α-isomer 17b", "setting": "[1]; 19b vs 17b", "value": "about twice as potent"}, {"measurement": "binding affinity relative to unsubstituted derivative 17a", "setting": "[1]; in words", "value": "comparable to that of the unsubstituted derivative 17a"}, {"measurement": "potency (binding affinity) relative to Compound 3, in words", "setting": "[1]; vs prior art cocaine analog 3", "value": "nearly three orders of magnitude more potent"}]}
{"smiles": "CCC[C@H]1C[C@@H]2[C@H](CC(=O)OC)[C@@H](Cc3ccccc3)C[C@H]1N2C", "note": "(relative stereo) [Compound 19d]", "values": [{"measurement": "potency (binding affinity) relative to Compound 3, in words", "setting": "[1]; vs prior art cocaine analog 3", "value": "nearly three orders of magnitude more potent"}]}
{"smiles": "COC(=O)[C@H]1[C@@H](c2ccccc2)C[C@@H]2CC[C@H]1N2C", "note": "[WIN 35,065-2]", "values": [{"measurement": "Ki", "setting": "[2]; read-out: Ki, high affinity, inhibition of [^3 H]WIN 35,428 binding, high affinity", "value": "33 ± 17", "unit": "nM"}, {"measurement": "Ki", "setting": "[2]; read-out: Ki, low affinity, inhibition of [^3 H]WIN 35,428 binding, low affinity", "value": "314 ± 222", "unit": "nM"}]}
